Experimental data from patent US20100119483A1, “PEPTIDE VIRAL ENTRY INHIBITORS” (Schering Corporation, priority 2004, published 2010).
Where “and” joins values, the source holds several entries; their conditions need not be identical. Equal entries are not always repeated.

Test system: HCV pseudoparticles
Test: HCV pseudoparticle (HCVpp) entry assay in Huh7 hepatoma cells, luciferase readout
Type: cell-based, hepatitis C virus
Method: HCV pseudotype particle generation. Single cycle HCV pseudoparticles are composed of a replication-defective HIV genome and HCV envelope proteins. These pseudoparticles were made by transfecting 293T cells with 5 ug of each pNL43E-R-luc (Chen et al., J. Virol. 68(2):654-60 (1994)) and plasmid expressing HCV envelope proteins pCMV/E1-2 with profection transfection kit from Promega (Madison, Wis.). The medium was refreshed 12-24 hours after transfection and supernatant was collected 48 hours after transfection. The supernatant from a transfection of only pNL43E-R-luc was used each time as a control for non specific entry events.
Infection of hepatoma cell lines with HCV pseudotype particles and screen for inhibitory peptides. The hepatoma cells, Huh7, was seeded at 8000 cells in 90 ul medium in 96-well plate. In the case of the inhibitor screen, the inhibitor was incubated with cells for one hour at 37° C. and then 50 ul viral supernatant was added to the cells 24 hours after seeding. The viral stock was pre-tittered and diluted to yield approximately 10,000 to 20,000 RLU. The cells were incubated at 37° C. with 5% CO2 for additional 72 hours and were harvested for luciferase assay. Peptide stocks were prepared in 100% DMSO at 10 mg/ml and were first screened at 100 ug/ml and then a dose responsive curve was generated with 10 points 3-fold titration starting from 100 ug/ml.
The peptide of SEQ ID NO: 77 was first serial diluted by the factor of 3 in 100% DMSO from 100 ug/ml and then transferred to the assay plates at 100-fold dilution. The peptide was first incubated with cells and HCVpp (A) or HIVpp (B), respectively, for 30 minutes at […] in this experiment. Then, the medium containing the peptide was removed from the cells and virus with peptide was added to the cells. Cells were incubated for 72 hours and then were harvested for luciferase assay. Two separate trials were performed.
In addition, the peptide of SEQ ID NO: 77 was mutated at several positions and assayed in the HCV entry assay discussed above. […] The assays were performed essentially as described above.

[1] = 0.1 nM of peptide (printed for three rows), two values per peptide and row
[2] = 0.3 nM of peptide, two values per peptide
[3] = 1 nM of peptide, two values per peptide
[4] = 3 nM of peptide, two values per peptide
[5] = 10 nM of peptide, two values per peptide
[6] = 30 nM of peptide, two values per peptide
[7] = 100 nM of peptide, two values per peptide
[8] = 300 nM of peptide, two values per peptide
[9] = 10000 nM of peptide, two values per peptide
[10] = 30000 nM of peptide, two values per peptide

| Substance | % control (HCVpp entry), lysine scanning [1] | % control (HCVpp entry), lysine scanning [2] | % control (HCVpp entry), lysine scanning [3] | % control (HCVpp entry), lysine scanning [4] | % control (HCVpp entry), lysine scanning [5] | % control (HCVpp entry), lysine scanning [6] | % control (HCVpp entry), lysine scanning [7] | % control (HCVpp entry), lysine scanning [8] | % control (HCVpp entry), lysine scanning [9] | % control (HCVpp entry), proline scanning [1] | % control (HCVpp entry), proline scanning [2] | % control (HCVpp entry), proline scanning [3] | % control (HCVpp entry), proline scanning [4] | % control (HCVpp entry), proline scanning [5] | % control (HCVpp entry), proline scanning [6] | % control (HCVpp entry), proline scanning [7] | % control (HCVpp entry), proline scanning [8] | % control (HCVpp entry), proline scanning [9] | % control (HCVpp entry), proline scanning [10] | further results |
| --- | --- | --- | --- | --- | --- | --- | --- | --- | --- | --- | --- | --- | --- | --- | --- | --- | --- | --- | --- | --- |
| A-I-K-W-E-Y-V-L-L-L-F-K-L (AIKWEYVLLLFKL; HCV peptide) [SEQ ID NO: 136] | 67 % control and 81 % control and 82 % control and 94 % control and 116 % control and 108 % control | 103 % control and 70 % control | 71 % control and 90 % control | 76 % control and 98 % control | 80 % control and 71 % control | 65 % control and 84 % control | 98 % control and 84 % control | 81 % control and 84 % control | 34 % control and 68 % control | – | – | – | – | – | – | – | – | – | – | – |
| A-I-K-W-E-Y-V-L-L-L-F-L-A [SEQ ID NO: 97] | – | – | – | – | – | – | – | – | – | – | – | – | – | – | – | – | – | – | – | % control (HCVpp entry), alanine scanning [1]: 80 % control and 101 % control and 105 % control and 102 % control and 95 % control and 97 % control; % control (HCVpp entry), alanine scanning [2]: 72 % control and 102 % control; % control (HCVpp entry), alanine scanning [3]: 76 % control and 92 % control; % control (HCVpp entry), alanine scanning [4]: 72 % control and 92 % control; % control (HCVpp entry), alanine scanning [5]: 79 % control and 69 % control; % control (HCVpp entry), alanine scanning [6]: 55 % control and 80 % control; % control (HCVpp entry), alanine scanning [7]: 46 % control and 51 % control; % control (HCVpp entry), alanine scanning [8]: 30 % control and 47 % control; % control (HCVpp entry), alanine scanning [9]: 19 % control and 37 % control; % control (HCVpp entry), alanine scanning [10]: 53 % control and 50 % control; % of control at ~30 uM (percentage of hepatitis C virus cellular entry at 30 μM peptide vs uninhibited control): 24% |
| A-I-K-W-E-Y-V-L-L-L-F-L-K [SEQ ID NO: 137] | 72 % control and 123 % control and 80 % control and 82 % control and 103 % control and 135 % control | 58 % control and 92 % control | 80 % control and 106 % control | 82 % control and 97 % control | 100 % control and 89 % control | 78 % control and 94 % control | 68 % control and 74 % control | 54 % control and 77 % control | 23 % control and 28 % control | – | – | – | – | – | – | – | – | – | – | – |
| A-I-K-W-E-Y-V-L-L-L-F-L-L [SEQ ID NO: 106] | – | – | – | – | – | – | – | – | – | – | – | – | – | – | – | – | – | – | – | HCVpp % inh (truncated peptides tested at 50 uM in 1% DMSO): 92% |
| A-I-K-W-E-Y-V-L-L-L-F-L-P [SEQ ID NO: 127] | – | – | – | – | – | – | – | – | – | 90 % control and 86 % control and 75 % control and 122 % control and 113 % control | 84 % control and 81 % control | 71 % control and 85 % control | 66 % control and 53 % control | 102 % control and 74 % control | 78 % control and 83 % control | 77 % control and 74 % control | 63 % control and 72 % control | 29 % control and 27 % control | 57 % control and 29 % control | – |
| A-I-K-W-E-Y-V-L-L-L-F-P-L (AIKWEYVLLLFPL; HCV peptide) [SEQ ID NO: 126] | – | – | – | – | – | – | – | – | – | 83 % control and 66 % control and 89 % control and 87 % control and 104 % control and 119 % control | 88 % control and 91 % control | 88 % control and 93 % control | 98 % control and 89 % control | 86 % control and 76 % control | 83 % control and 82 % control | 68 % control and 81 % control | 72 % control and 85 % control | 43 % control and 44 % control | 55 % control and 80 % control | – |
